Results reported in US10351586B2, “Cytidine derivative dimers and applications thereof” (CHANGZHOU FANGYUAN PHARMACEUTICAL CO., LTD, priority 2014, dated 2019).

System: HCT-116 human colon cancer cells
Assay: Colony formation inhibition test on HCT-116 human colon cancer cells
Type: cell-based
Details: for Number of cell clones on HCT-116, mean / inhibition at 0.05 µM / inhibition at 0.15 µM / inhibition at 0.45 µM: 72 h treatment, then 7-10 days; for inhibition at 0.05 µM / inhibition at 0.15 µM / inhibition at 0.45 µM / IC50: Homo sapiens; for inhibition at 0.05 µM / inhibition at 0.15 µM / inhibition at 0.45 µM: HCT-116, read-out: % inhibition (colony formation inhibition rate); for IC50: HCT-116 cells, dose-response 50, 150, 450 nM, read-out: IC50 value (colony formation inhibition, FIG. 7)
Description: 1. The colony formation inhibition test was used to evaluate the effect of four exemplary candidate compounds (D1, D2, D3, and D4) having concentrations of 50 nM, 150 nM and 450 nM on inhibiting cell proliferation of HCT-116 human colon cancer cells line.
2. Experiment material includes cell lines. HCT-116 human colon cancer cell line was purchased from the Chinese Academy of Sciences Shanghai Cell Resource Center, Cat # TCHu 99.
3. Reagent preparation includes HCT-116 human colon cancer cell culture medium, e.g., Dulbecco's Modified Eagle's medium (DMEM) medium with 10% fetal bovine serum (FBS). Compound solutions were prepared by dissolving and diluting the above synthesized compounds in dimethyl sulfoxide (DMSO) to a final concentration of about 100 μM.
Cell staining solution was prepared including 0.5% crystal violet solution prepared using absolute or anhydrous ethanol, and stored in dark. Before staining, the solution was mixed with phosphate buffered saline (PBS) buffer solution by volume ratio of 1:4 as the cell staining solution.
4. Cell culture: cells in logarithmic growth phase were collected, counted, and resuspended in complete culture medium. The cell concentration was adjusted to an appropriate concentration, 6-well culture plates were seeded, with about 300 cells and 1.8 mL of culture medium in each well. Cells were incubated for about 5 hours in an incubator at about 37° C. and about 100% relative humidity and under 5% CO2.
5. Cell colony formation inhibition test and data processing were performed including, for example, (a)-(i) as follows.
(a) Cells in logarithmic growth phase were collected and counted. The cells were re-suspended in culture medium containing 5% FBS, and counted. Six-well plates were seeded according to a rate of 300 cells per well. Cells were incubated for about 5 hours in an incubator at about 37° C. with 100% relative humidity and under 5% CO2.
(b) The compounds were diluted with culture medium (containing 5% FBS) to be concentrations of about 0.5 μM, 1.5 μM and 4.5 μM. Adding the compounds to cells in 200 μL per well, the final concentrations of the compounds were about 50 nM, 150 nM and 450 nM. Each concentration point was repeatedly tested for three times.
(c) Cells were incubated for about 72 hours in an incubator at 37° C. with 100% relative humidity and under 5% CO2. (d) The culture medium from the plates (the culture medium containing the compound(s) was aspirated. The plates were rinsed with Hank's Balance Salt Solution (HBSS) twice, and replaced with fresh culture medium (DMEM medium with 15% FBS).
(e) Cells were incubated for about 7-10 days in an incubator at about 37° C. and 100% relative humidity and under 5% CO2, until the formation of visible cloned plaques. (f) The culture medium was aspirated from the plates. The plates were rinsed twice with PBS solution. (g) The residual PBS was absorbed and removed, and ethanol was added at 1 mL per plate, fixing for 30 minutes.
(h) Ethanol was absorbed and removed, and cell staining solution was added, stained for 3 minutes. (i) The staining solution was aspirated. After rinsing three times with PBS, the cells were counted.
Data processing was performed. Cloning formation efficiency=[As/Ac]×100%; and colony formation inhibition rate=1−cloning formation efficiency, where As denotes number of cell colonies in compound-treated group (cells+compounds to be tested), and Ac denotes number of cell colonies in negative control (without treating with compound) (cells+1% DMSO).

Row | Compound | Number of cell clones on HCT-116, mean (50 nM) | Number of cell clones on HCT-116, mean (150 nM) | Number of cell clones on HCT-116, mean (450 nM) | inhibition at 0.05 µM (50 nM) [%] | inhibition at 0.15 µM (150 nM) [%] | inhibition at 0.45 µM (450 nM) [%] | IC50 [nM]
1 | CCCCOC(=O)Nc1ccn(C2OC(COC(=O)CCC(=O)OC[C@H]3O[C@@H](n4ccc(NC(=O)OCc5ccccc5)nc4=O)C(F)(F)[C@@H]3O)C(O)C2(F)F)c(=O)n1 (stereo in doubt) [Compound D4, 1-O-(4-N-(Benzyloxycarbonyl)-gemcitabine)-4-O-(4-N-(n-Butoxycarbonyl)-gemcitabine)-succinate] | 235 | 75 | 11 | 8.2 | 70.7 | 95.7 | ~112
2 | CCCCOC(=O)Nc1ccn([C@H]2O[C@@H](COC(=O)CCC(=O)OC[C@H]3O[C@@H](n4ccc(NC(=O)OCCCC)nc4=O)C(F)(F)[C@@H]3O)[C@H](O)C2(F)F)c(=O)n1 (stereo in doubt) [Compound D2, 1,5-di-[4-N-(n-butoxycarbonyl)-2′-deoxy-2′,2′-difluoro-cytidine]glutarate] | 243 | 191 | 36 | 4.7 | 25.1 | 85.9 | ~227
3 | CCCCOC(=O)Nc1ccn(C2OC(COC(=O)CCCC(=O)OC[C@H]3O[C@@H](n4ccc(NC(=O)OCCCC)nc4=O)C(F)(F)[C@@H]3OC(=O)OCCCC)C(OC(=O)OCCCC)C2(F)F)c(=O)n1 (stereo in doubt) [Compound D1, 1,5-di-[4-N-(n-butyloxycarbonyl)-3′-O-(n-butoxycarbonyl)-2′-deoxy-2′,2′-difluoro-cytidine]glutarate] | 242 | 188 | 52 | 3.58 | 25.1 | 79.3 | ~245
4 | O=C(CCCC(=O)OC[C@H]1O[C@@H](n2ccc(NC(=O)OCc3ccccc3)nc2=O)C(F)(F)[C@@H]1O)OC[C@H]1O[C@@H](n2ccc(NC(=O)OCc3ccccc3)nc2=O)C(F)(F)[C@@H]1O [Compound D3, 1,5-di-[4-N-(benzyloxycarbonyl)-2′-deoxy-2′,2′-difluoro-cytidine]glutarate] | 237 | 20 | 4 | 1.66 | 91.7 | 98.3 | ~99.8
